Assay [1] deals with cloned human P2Y1 receptors (Homo sapiens (Human), UniProt P47900). The assay is described as follows: Binding Assay B - Scintillation Proximity Assay (SPA) for P2Y1 binding, [33P] 2MeS-ADP. Particulars: SPA, 0.3 nM [33P] 2MeS-ADP, Cheng-Prusoff; read-out: P2Y1 Ki (nM) using binding assay B. As to the method:
Binding Assay B—Scintillation Proximity Assay (SPA) for P2Y1 Binding
A SPA membrane binding assay was used to identify inhibitors of [^33P] […] Reactions were allowed to proceed to completion at room temperature for 1 hour followed by centrifugation of the plate for 5 min. About 40 μL of the aqueous solution was aspirated. Plates were sealed and the [^33P]
(In general: Scintillation proximity formats need no separation of bound from free tracer.)

Assay [2] relates to human platelet rich plasma (PRP). The assay is described as follows: ADP induced platelet aggregation assay. The note with it: Homo sapiens, Platelet, 5 min, read-out: PA IC50 (μM) @ 10 μM ADP, human PRP, 10 μM ADP, AUC at 5 minute.
Protocol: The ability of P2Y1 antagonists covered in the present invention to inhibit platelet aggregation induced by 10 μM ADP was tested using human platelet rich plasma (PRP) as described in Platelet Protocols: Research and Clinical Laboratory Procedures (White, M. M. et al., Academic Press (1999)). Human blood was collected in 30 μM (final concentration in blood) argatroban (GSK) as the anticoagulant at a ratio of 1 mL per 9 mL of blood. The PRP was isolated by centrifugation at 170 g for 12 minutes. The platelet poor plasma (PPP) was used as the blank for optical aggregometry. Compounds of the present invention in DMSO solution was preincubated with 250 μL PRP at 37° C. for 1 minute with stirring speed of 1000 rpm. Aggregation was initiated by addition of 2.5 μL of 1 mM ADP (Chrono-log, Havertown, Pa.) for a final ADP concentration of 10 μM. Platelet aggregation was monitored using Optical Aggregometer (Chrono-log, Havertown, Pa.) and the area under the curve (AUC) at 5 minute was measured. IC50 was calculated using vehicle control as 0% inhibition.

Counter-ions that a name gives are not always drawn.

Chain of cloned human P2Y1 receptors (P47900 whole entry): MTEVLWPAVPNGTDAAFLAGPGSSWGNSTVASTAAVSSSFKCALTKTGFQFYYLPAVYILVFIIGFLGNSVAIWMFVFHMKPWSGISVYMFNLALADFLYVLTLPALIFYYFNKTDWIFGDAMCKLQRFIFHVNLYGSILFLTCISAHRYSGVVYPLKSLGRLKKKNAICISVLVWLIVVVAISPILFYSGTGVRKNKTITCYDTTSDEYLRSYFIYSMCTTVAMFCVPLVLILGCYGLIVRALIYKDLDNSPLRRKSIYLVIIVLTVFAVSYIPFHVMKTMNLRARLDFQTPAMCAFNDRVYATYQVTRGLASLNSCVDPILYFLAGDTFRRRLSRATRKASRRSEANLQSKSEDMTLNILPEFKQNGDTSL

One may read the Ki as a measure of affinity in units of concentration, obtained from inhibition or displacement. One may read the IC50 as the point on the concentration scale where inhibition reaches its midpoint. On to `CC1(C)CN(c2ccccc2NC(=O)Nc2ccc(OC(F)(F)F)cc2)c2c(O)ccc(-c3ccc(Cl)cc3)c21` [Example 205, 1-(2-(4-(4-Chlorophenyl)-7-hydroxy-3,3-dimethylindolin-1-yl)phenyl)-3-(4-(trifluoromethoxy)phenyl)urea], for which the Ki in assay [1] was found to be 6.7 nM. For the same compound, the IC50 in assay [2] is 0.14 µM.
The like results for `CNc1ncnc2oc(-c3ccc(O)c4c3C(C)(C)CN4c3ccccc3NC(=O)Nc3ccc(OC(F)(F)F)cc3)nc12` [Example 107, 1-(2-(7-Hydroxy-3,3-dimethyl-4-(7-(methylamino)oxazolo[5,4-d]pyrimidin-2-yl)indolin-1-yl)phenyl)-3-(4-(trifluoromethoxy)phenyl)urea] were, in that order, 24 nM and 3.85 µM.
Consider `CC1(C)CN(c2ccccc2NC(=O)Nc2ccc(OC(F)(F)F)cc2)c2c(O)cc(F)c(-c3noc(C(F)(F)F)n3)c21` [Example 276, 1-(2-(5-Fluoro-7-hydroxy-3,3-dimethyl-4-(5-(trifluoromethyl)-1,2,4-oxadiazol-3-yl)indolin-1-yl)phenyl)-3-(4-(trifluoromethoxy)phenyl)urea], for which, in assay [1], the Ki was 48.7 nM. In addition, the IC50 in assay [2] amounted to 0.64 µM.
For the compound `CCOC(=O)C1(C)CN(c2ccccc2NC(=O)Nc2csc(Cl)n2)c2c(O)ccc(Cl)c21` (stereo not shown) [Example 75, Ethyl 4-chloro-1-(2-(3-(2-chlorothiazol-4-yl)ureido)phenyl)-7-hydroxy-3-methylindoline-3-carboxylate], the inhibition constant (Ki) in assay [1] came out at 7.1 nM. In assay [2], the IC50 came to 0.56 µM.
The like results for `CC1(C)CN(c2ccccc2NC(=O)Nc2nc3ccc(F)cc3s2)c2c(O)ccc(-c3nc4ccc(F)cc4o3)c21` [Example 101, 1-(2-(4-(6-Fluorobenzo[d]oxazol-2-yl)-7-hydroxy-3,3-dimethylindolin-1-yl)phenyl)-3-(6-fluorobenzo[d]thiazol-2-yl)urea] were, in that order, 31.9 nM and 0.67 µM.
The like results for `CC1(C)CN(c2ccccc2NC(=O)Nc2ccc(OC(F)(F)F)cc2)c2c(O)c(F)cc(-c3ccc(C(F)(F)F)cc3)c21` [Example 229, 1-(2-(6-Fluoro-7-hydroxy-3,3-dimethyl-4-(4-(trifluoromethyl)phenyl)indolin-1-yl)phenyl)-3-(4-(trifluoromethoxy)phenyl)urea] were, in that order, 15.3 nM and 0.22 µM.
The like results for `CC1(C)CN(c2ccccc2NC(=O)Nc2ccc(OC(F)(F)F)cc2)c2c(O)ccc(-c3ccc(C(F)(F)F)nc3)c21` [Example 120, 1-(2-(7-Hydroxy-3,3-dimethyl-4-(6-(trifluoromethyl)pyridin-3-yl)indolin-1-yl)phenyl)-3-(4-(trifluoromethoxy)phenyl)urea,TFA] were, in that order, 7.9 nM and 0.14 µM.
Turning to `CC1(C)CN(c2ccccc2NC(=O)Nc2ccc(OC(F)(F)F)cc2)c2c(O)ccc(-c3cncc(Cl)c3)c21` [Example 116, 1-(2-(4-(5-Chloropyridin-3-yl)-7-hydroxy-3,3-dimethylindolin-1-yl)phenyl)-3-(4-(trifluoromethoxy)phenyl) urea], in assay [1], the Ki came out at 22.4 nM. The IC50 in assay [2] came out at 0.5 µM.
The like results for `CC1(C)CN(c2ccccc2NC(=O)Nc2ccc(OC(F)(F)F)cc2)c2c(O)cc(F)c(-c3cc(C(F)(F)F)no3)c21` [Example 262, 1-(2-(5-Fluoro-7-hydroxy-3,3-dimethyl-4-(3-(trifluoromethyl)isoxazol-5-yl)indolin-1-yl)phenyl)-3-(4-(trifluoromethoxy)phenyl)urea] were, in that order, 12.9 nM and 0.92 µM.
On to `CC1(C)CN(c2ccccc2NC(=O)Nc2ccc(OC(F)(F)F)cc2)c2c(O)cc(F)c(-c3ccc(C(F)(F)F)nc3)c21` [Example 135, 1-(2-(5-Fluoro-7-hydroxy-3,3-dimethyl-4-(6-(trifluoromethyl)pyridin-3-yl)indolin-1-yl)phenyl)-3-(4-(trifluoromethoxy)phenyl)urea], for which the Ki in assay [1] came to 8.7 nM. In addition, the IC50 in assay [2] came out at 0.15 µM.
The like results for `CC1(C)CN(c2ccccc2NC(=O)Nc2ccc(OC(F)(F)F)cc2)c2c(O)ccc(-c3nc4ccc(F)cc4o3)c21` [Example 92, 1-(2-(4-(6-Fluorobenzo[d]oxazol-2-yl)-7-hydroxy-3,3-dimethylindolin-1-yl)phenyl)-3-(4-(trifluoromethoxy)phenyl)urea] were, in that order, 36.6 nM and 0.2 µM.
As for `Cc1cnc2oc(-c3ccc(O)c4c3C(C)(C)CN4c3ccccc3NC(=O)Nc3ccc(OC(F)(F)F)cc3)nc2c1` [Example 102, 1-(2-(7-Hydroxy-3,3-dimethyl-4-(6-methyloxazolo[5,4-b]pyridin-2-yl)indolin-1-yl)phenyl)-3-(4-(trifluoromethoxy)phenyl)urea], the inhibitory constant (Ki) in assay [1] amounted to 11.2 nM. For the same compound, the IC50 in assay [2] was 0.97 µM.
Consider `CC1(C)CN(c2ccccc2NC(=O)Nc2ccc(OC(F)(F)F)cc2)c2c(O)ccc(-c3nc4ccccc4s3)c21` [Example 83], for which the Ki in assay [1] was found to be 14.7 nM. For the same compound, the IC50 in assay [2] came out at 0.86 µM.
The like results for `CC1(C)CN(c2ccccc2NC(=O)Nc2ccc(OC(F)(F)F)cc2)c2c(O)c(F)cc(-c3ccc(C(F)(F)F)cn3)c21` [Example 129, 1-(2-(6-Fluoro-7-hydroxy-3,3-dimethyl-4-(5-(trifluoromethyl)pyridin-2-yl)indolin-1-yl)phenyl)-3-(4-(trifluoromethoxy)phenyl)urea] were, in that order, 15.3 nM and 0.71 µM.
In the case of `CC1(C)CN(c2ccccc2NC(=O)Nc2csc(C(F)(F)F)n2)c2c(O)ccc(-c3ccc(F)cc3)c21` [Example 208, 1-(2-(4-(4-Fluorophenyl)-7-hydroxy-3,3-dimethylindolin-1-yl)phenyl)-3-(2-(trifluoromethyl)thiazol-4-yl)urea], the inhibition constant Ki in assay [1] amounted to 11.4 nM. Moreover, the IC50 in assay [2] is 0.25 µM.
Take `CC1(C)CN(c2ccccc2NC(=O)Nc2ccc(OC(F)(F)F)cc2)c2c(O)ccc(-c3cc(F)cc(F)c3)c21` [Example 197, 1-(2-(4-(3,5-Difluorophenyl)-7-hydroxy-3,3-dimethylindolin-1-yl)phenyl)-3-(4-(trifluoromethoxy)phenyl)urea]: the Ki in assay [1] was 5.1 nM. Besides, the IC50 in assay [2] came to 0.18 µM.
The like results for `CCC1(CC)CN(c2ccccc2NC(=O)Nc2ccc(C3CCCN3CC(C)C)cc2)c2c(O)cccc21` (stereo not shown) [Example 8] were, in that order, 18.6 nM and 0.31 µM.
The like results for `COC(=O)c1ccc(O)c2c1C(C)(C)CN2c1ccccc1NC(=O)Nc1ccc(OC(F)(F)F)cc1` [Example 80, Methyl 7-hydroxy-3,3-dimethyl-1-(2-(3-(4-(trifluoromethoxy)phenyl)ureido)phenyl)indoline-4-carboxylate] were, in that order, 9 nM and 0.84 µM.
The like results for `CC(C)(C)c1nc(-c2c(F)cc(O)c3c2C(C)(C)CN3c2ccccc2NC(=O)Nc2nc3ccc(Cl)cc3s2)co1` [Example 270, 1-(2-(4-(2-(tert-Butyl)oxazol-4-yl)-5-fluoro-7-hydroxy-3,3-dimethylindolin-1-yl)phenyl)-3-(6-chlorobenzo[d]thiazol-2-yl)urea] were, in that order, 17.3 nM and 0.43 µM.
Take `Cc1cc(-c2c(F)cc(O)c3c2C(C)(C)CN3c2ccccc2NC(=O)Nc2ccc(OC(F)(F)F)cc2)ccc1F` [Example 245, 1-(2-(5-Fluoro-4-(4-fluoro-3-methylphenyl)-7-hydroxy-3,3-dimethylindolin-1-yl)phenyl)-3-(4-(trifluoromethoxy)phenyl)urea]: the Ki in assay [1] was 11.4 nM. Also, in assay [2], the half-inhibitory concentration (IC50) turned out to be 0.19 µM.

These data come from US9540323B2 (BRISTOL-MYERS SQUIBB COMPANY, priority 2012, dated 2017).
